pIC50: −log10 of the molar value.
How the values were obtained:
Test in all cases: β-Lactamase inhibitory activity, nitrocefin hydrolysis
Format in all cases: biochemical
OXA-11 = target: T1, OXA-11 (Pseudomonas aeruginosa, UniProt Q06778)
T1 construct: made in house; host or cells: E. coli
Method: (§1) Enzyme activity was monitored by spectrophotometric measurement of nitrocefin (NCF-TOKU-E, N005) hydrolysis at 485 nm, at room temperature and in assay buffer A: 100 mM Phosphate pH7, 2% glycerol and 0.1 mg/mL Bovine serum albumin (Sigma, B4287). […] To a transparent polystyrene plate (Corning, 3628) were added in each well 5 μL DMSO or inhibitor dilutions in DMSO and 80 μL enzyme in buffer A. Plates were immediately read at 485 nm in a microplate spectrophotometer (BioTek, PowerWave HT) to enable background subtraction. After 30 min of pre-incubation at room temperature, 15 μL of NCF (200 μM final) were finally added in each well. Final enzyme concentrations were 0.1 nM (TEM-1), 0.075 nM (SHV-1), 0.4 nM (CTX-M-15), 1 nM (KPC-2), 0.2 nM (P99 AmpC), 0.2 nM (CMY-37), 0.4 nM (AmpC P. aeruginosa), 0.2 nM (OXA-1), 1.2 nM (OXA-11), 0.4 nM (OXA-15) and 0.3 nM (OXA-48). After 20 min incubation at room temperature, plates were once again read at 485 nm. Enzyme activity was obtained by subtracting the final signal by the background, and was converted to enzyme inhibition using non inhibited wells. IC50 curves were fitted to a classical Langmuir equilibrium model with Hill slope using XLFIT (IDBS).

KPC-2 = target: T2, KPC-2 (Klebsiella pneumoniae, UniProt Q9F663); settings: class (A); 30 min pre-incubation
T2 construct: made in house; host or cells: E. coli
Method: as §1

TEM-1 = target: T3, TEM-1 (Escherichia coli, UniProt P62593); settings: class (A); 30 min pre-incubation
T3 construct: made in house; host or cells: E. coli
Method: (§2) Enzyme activity was monitored by spectrophotometric measurement of nitrocefin (NCF-TOKU-E, N005) hydrolysis at 485 nm, at room temperature and in assay buffer A: 100 mM Phosphate pH7, 2% glycerol and 0.1 mg/mL Bovine serum albumin (Sigma, B4287). Enzymes were cloned in E. coli expression vector, expressed and purified in house using classical procedures. To a transparent polystyrene plate (Corning, 3628) were added in each well 5 μL DMSO or inhibitor dilutions in DMSO and 80 μL enzyme in buffer A. Plates were immediately read at 485 nm in a microplate spectrophotometer (BioTek, PowerWave HT) to enable background subtraction. After 30 min of pre-incubation at room temperature, 15 μL of NCF (200 μM final) were finally added in each well. Final enzyme concentrations were 0.1 nM (TEM-1), 0.075 nM (SHV-1), 0.4 nM (CTX-M-15), 1 nM (KPC-2), 0.2 nM (P99 AmpC), 0.2 nM (CMY-37), 0.4 nM (AmpC P. aeruginosa), 0.2 nM (OXA-1), 1.2 nM (OXA-11), 0.4 nM (OXA-15) and 0.3 nM (OXA-48). After 20 min incubation at room temperature, plates were once again read at 485 nm. Enzyme activity was obtained by subtracting the final signal by the background, and was converted to enzyme inhibition using non inhibited wells. IC50 curves were fitted to a classical Langmuir equilibrium model with Hill slope using XLFIT (IDBS).

SHV-1 = target: T4, SHV-1 (Klebsiella pneumoniae, UniProt P0AD64)
T4 construct: made in house; host or cells: E. coli
T4 sequence (P0AD64 22-286): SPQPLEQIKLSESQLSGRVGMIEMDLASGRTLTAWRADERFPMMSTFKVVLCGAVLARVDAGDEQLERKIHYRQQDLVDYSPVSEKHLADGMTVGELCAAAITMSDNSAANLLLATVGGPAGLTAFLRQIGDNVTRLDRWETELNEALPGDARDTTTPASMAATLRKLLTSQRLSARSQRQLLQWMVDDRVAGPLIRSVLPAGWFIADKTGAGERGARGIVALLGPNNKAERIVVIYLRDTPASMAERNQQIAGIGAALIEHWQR
Method: as §2

T3 sequence (P62593 24-286 limits assumed): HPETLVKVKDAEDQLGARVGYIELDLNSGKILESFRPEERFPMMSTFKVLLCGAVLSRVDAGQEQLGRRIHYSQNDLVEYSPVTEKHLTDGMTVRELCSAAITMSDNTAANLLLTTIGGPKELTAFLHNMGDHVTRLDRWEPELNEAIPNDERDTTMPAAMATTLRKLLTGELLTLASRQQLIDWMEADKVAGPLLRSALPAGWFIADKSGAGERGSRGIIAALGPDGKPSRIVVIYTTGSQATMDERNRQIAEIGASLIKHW
T2 sequence (Q9F663 25-293, looked up, species assumed): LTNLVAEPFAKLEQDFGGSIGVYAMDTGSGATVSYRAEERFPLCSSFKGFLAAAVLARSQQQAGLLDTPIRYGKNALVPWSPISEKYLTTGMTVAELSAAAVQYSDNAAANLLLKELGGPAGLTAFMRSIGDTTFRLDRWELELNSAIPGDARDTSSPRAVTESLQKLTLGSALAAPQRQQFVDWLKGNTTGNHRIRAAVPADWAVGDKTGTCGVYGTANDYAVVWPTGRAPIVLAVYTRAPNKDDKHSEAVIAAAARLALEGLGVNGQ
T1 sequence (Q06778 21-266): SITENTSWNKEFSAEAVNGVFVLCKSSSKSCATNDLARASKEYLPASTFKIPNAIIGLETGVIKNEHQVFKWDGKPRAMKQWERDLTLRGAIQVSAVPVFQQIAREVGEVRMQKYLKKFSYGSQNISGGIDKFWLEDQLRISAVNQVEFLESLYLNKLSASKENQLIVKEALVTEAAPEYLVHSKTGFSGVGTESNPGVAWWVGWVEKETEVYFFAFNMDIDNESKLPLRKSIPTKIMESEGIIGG

O=C(O)C(F)(F)F.O=C1N2C[C@H](c3scnc3[C@H]2c2ncc[nH]2)N1OS(=O)(=O)[O-].[Na+] (relative stereo) [Example 1, Sodium and 2,2,2-trifluoroacetate [trans-7-(1H-imidazol-3-ium-2-yl)-9-oxo-3-thia-5,8,10-triaza-tricyclo[6.2.1.0^2,6]undeca-2(6),4-dien-10-yl]sulfate]
pIC50 (OXA-11): 6.39
pIC50 (KPC-2): 8.38
pIC50 (TEM-1): 7.92
pIC50 (SHV-1): 8.26
